Test results: patent US20050059626A1, “Methods of preventing and treating viral infections using immunomodulatory polynucleotide sequences” (priority 2000, published 2005)
Like-named read-outs stand apart in the source and are kept apart here.

Experiments:
[1] = tested on: influenza A/Mississippi (H3N2) virus; assay type: in vivo, mice; settings: for Pulmonary virus titer (log10/lung) Mean / Pulmonary virus titer (log10/lung) in mouse no. 1 / Pulmonary virus titer (log10/lung) in mouse no. 2 / Pulmonary virus titer (log10/lung) in mouse no. 3 / Pulmonary virus titer (log10/lung) in mouse no. 4 / Pulmonary virus titer (log10/lung) in mouse no. 5 / Pulmonary virus titer (log10/lung) in mouse no. 6 / Pulmonary virus titer (log10/lung) in mouse no. 7: non-ISS = SEQ ID NO:9
CRPV-E8m = test: Rabbit papilloma model (CRPV-E8m), papilloma geometric mean diameter
Description: In another experiment, a mutant of CRPV which induces small papillomas, CRPV-E8m, was used to induce papillomas on five rabbit treatment groups (five rabbits per group). In each animal, papillomas on the left side of the animal received treatments and papillomas on the right side were untreated. Four of the treatment groups received doses between 100 μg and 2000 μg of ISS as intradermal injections per papilloma at several treatment regimes and the fifth group received injections of PBS as control, as outlined below.
Four papillomas, initiated with CRPV-E8m plasmid DNA, were established on each rabbit. Skin at the site of papilloma initiation was made hyperplastic using a mixture of turpentine and acetone prior to viral DNA administration. The size of papillomas was measured (three dimensions, in mm) and the GMD calculated for each papilloma.

HSV-2 = test: Viral titer after pre-treating HSV-2 virus with oligonucleotide, Vero cells; assay type: cell-based, African Green monkey (Vero cells)
Description: (§1) HSV-1 or HSV-2 virus was pre-treated with varying concentrations of ISS or non-ISS oligonucleotides for 10 minutes prior to adding the mixture to plated Vero cells. Oligonucleotides were used at 1 μg/ml or 10 μg/ml. Viral titers were calculated as a percent of control titer generated by cells not treated with the oligonucleotides. The data are expressed as percent of control titer.

HSV-1 = test: Viral titer after pre-treating HSV-1 virus with oligonucleotide, Vero cells; assay type: cell-based, African Green monkey (Vero cells)
Description: as §1

[2] = 50 μg IN Day 0 shortly before virus, lungs Day 4
[3] = 50 μg IN Day −3, virus Day 0, lungs Day 4

5′-TGACTGTGAACGTTCGAGATGA-3′ [SEQ ID NO: 1]
Pulmonary virus titer (log10/lung) Mean [1, 2]: 4.6 log10/lung | Pulmonary virus titer (log10/lung) in mouse no. 1 [1, 2]: 4 log10/lung | Pulmonary virus titer (log10/lung) in mouse no. 2 [1, 2]: 5.5 log10/lung | Pulmonary virus titer (log10/lung) in mouse no. 3 [1, 2]: 5 log10/lung | Pulmonary virus titer (log10/lung) in mouse no. 4 [1, 2]: 4.5 log10/lung | Pulmonary virus titer (log10/lung) in mouse no. 5 [1, 2]: 4.5 log10/lung | Pulmonary virus titer (log10/lung) in mouse no. 6 [1, 2]: 4.5 log10/lung | Pulmonary virus titer (log10/lung) in mouse no. 7 [1, 2]: 4.5 log10/lung | Pulmonary virus titer (log10/lung) Mean [1, 3]: 4.7 log10/lung | Pulmonary virus titer (log10/lung) in mouse no. 1 [1, 3]: 5.5 log10/lung | Pulmonary virus titer (log10/lung) in mouse no. 2 [1, 3]: 4 log10/lung | Pulmonary virus titer (log10/lung) in mouse no. 3 [1, 3]: 6 log10/lung | Pulmonary virus titer (log10/lung) in mouse no. 4 [1, 3]: 5.5 log10/lung | Pulmonary virus titer (log10/lung) in mouse no. 5 [1, 3]: 5 log10/lung | Pulmonary virus titer (log10/lung) in mouse no. 6 [1, 3]: 4 log10/lung | Pulmonary virus titer (log10/lung) in mouse no. 7 [1, 3]: 3 log10/lung | Reduction in influenza virus titer compared to PBS ([1]; IN, 50 μg/mouse before viral infection): fails to cause a satisfactory significant reduction in virus titer | Size of papillomas (GMD), treated versus untreated (CRPV-E8m; Treatment Group C: 500 μg/injection, 1 time/week days 47-86, intradermal): reduction in the size of the ISS treated papillomas compared to untreated papillomas | Papilloma growth rates, treated versus untreated papillomas (CRPV-E8m; Treatment Groups A, B, D (100 μg 3x/week; 100 μg 1x/week; 2000 μg weeks 7 and 10), intradermal): Minimal differences | Viral titer, percent of control titer (HSV-2; HSV-2 virus pre-treated 10 minutes with 1 μg/ml): 96% of control titer | Viral titer, percent of control titer (HSV-2; HSV-2 virus pre-treated 10 minutes with 10 μg/ml): 102% of control titer | Effect on viral titers from infected cells (HSV-1; HSV virus incubated with ISS prior to infecting cells in vitro (HSV-1 and HSV-2, Table 13)): no effect on the viral titers | Viral titer, percent of control titer (HSV-1; HSV-1 virus pre-treated 10 minutes with 1 μg/ml): 101% of control titer | Viral titer, percent of control titer (HSV-1; HSV-1 virus pre-treated 10 minutes with 10 μg/ml): 109% of control titer
